In US5728724A, “Benzothiophene compounds” (Eli Lilly and Company, priority 1996, dated 1998):
Structures can show the parent of a compound that is named as a salt.

Tests used:
[1] = system: MCF-7 breast adenocarcinoma cells; assay: MCF-7 Proliferation Assay (tritiated thymidine); format: cell-based; details: 48 hours, tritiated thymidine incorporation; for IC50: Homo sapiens, MCF7
Experimental: MCF-7 breast adenocarcinoma cells (ATCC HTB 22) were maintained in MEM (minimal essential medium, phenol red-free, Sigma, St. Louis, Mo.) supplimented with 10% fetal bovine serum (FBS) (V/V), L-glutamine (2 mM), sodium pyruvate (1 mM), HEPES {(N-[2-hydroxyethyl]piperazine-N'-[2-ethanesulfonic acid]10 mM}, non-essential amino acids and bovine insulin (1 ug/mL) (maintenance medium). Ten days prior to assay, MCF-7 cells were switched to maintenance medium supplemented with 10% dextran coated charcoal stripped fetal bovine serum (DCC-FBS) assay medium) in place of 10% FBS to deplete internal stores of steroids. MCF-7 cells were removed from maintenance flasks using cell dissociation medium (Ca++/Mg++ free HBSS (phenol red-free) supplemented with 10 mM HEPES and 2 mM EDTA). Cells were washed twice with assay medium and adjusted to 80,000 cells/mL. Approximately 100 μL (8,000 cells) were added to flat-bottom microculture wells (Costar 3596) and incubated at 37° C. in a 5% CO2 humidified incubator for 48 hours to allow for cell adherence and equilibration after transfer. Serial dilutions of drugs or DMSO as a diluent control were prepared in assay medium and 50 μL transferred to triplicate microcultures followed by 50 μL assay medium for a final volume of 200 μL. After an additional 48 hours at 37° C. in a 5% CO2 humidified incubator, microcultures were pulsed with tritiated thymidine (1 uCi/well) for 4 hours. Cultures were terminated by freezing at -70° C. for 24 hours followed by thawing and harvesting of microcultures using a Skatron Semiautomatic Cell Harvester. Samples were counted by liquid scintillation using a Wallac BetaPlace β counter. Results in Table 2 below show the IC50 for certain compounds of the present invention.

[2] = system: Uterine Eosinophil Peroxidase (EPO); assay: Uterine Eosinophil Peroxidase (EPO) Assay in ovariectomized rats; format: in vivo, Sprague Dawley rats; parameters: key: max velocity of A450 increase over a 15 s interval; details: oral, daily for 4 days, OVX rats
Experimental: (§1) In the examples illustrating the methods, a post-menopausal model was used in which effects of different treatments upon circulating lipids were determined.
(§2) Seventy-five day old female Sprague Dawley rats (weight range of 200 to 225g) were obtained from Charles River Laboratories (Portage, Mich.). The animals were either bilaterally ovariectomized (OVX) or exposed to a Sham surgical procedure at Charles River Laboratories, and then shipped after one week. Upon arrival, they were housed in metal hanging cages in groups of 3 or 4 per cage and had ad libitum access to food calcium content approximately 0.5%) and water for one week. Room temperature was maintained at 22.2°±1.7° C. with a minimum relative humidity of 40%. The photoperiod in the room was 12 hours light and 12 hours dark.
(§3) Dosing Regimen Tissue Collection. After a one week acclimation period (therefore, two weeks post-OVX) daily dosing with test compound was initiated. […] Animals were dosed daily for 4 days. Following the dosing regimen, animals were weighed and anesthetized with a ketamine: Xylazine (2:1, V:V) mixture and a blood sample was collected by cardiac puncture. The animals were then sacrificed by asphyxiation with CO2, the uterus was removed through a midline incision, and a wet uterine weight was determined.
Uterine Eosinophil Peroxidase (EPO) Assay. Uteri were kept at 4° C. until time of enzymatic analysis. The uteri were then homogenized in 50 volumes of 50 mM Tris buffer (pH-8.0) containing 0.005% Triton X-100. Upon addition of 0.01% hydrogen peroxide and 10 mM O-phenylenediamine (final concentrations) in Tris buffer, increase in absorbance was monitored for one minute at 450 nm. The presence of eosonophils in the uterus is an indication of estrogenic activity of a compound. The maximal velocity of a 15 second interval was determined over the initial, linear portion of the reaction curve.

[3] = system: uterus of ovariectomized (OVX) rats; assay: Uterine weight in ovariectomized rats (post-menopausal model, agonist activity); format: in vivo, Sprague Dawley rats; details: daily for 4 days; for Uterine Weight (% increase vs. OVX): oral
Experimental: as §1, §2, §3

[4] = system: Serum Cholesterol; assay: Serum cholesterol analysis in ovariectomized rats; format: in vivo, Sprague Dawley rats; details: daily for 4 days; for Serum Cholesterol (% decrease vs. OVX): oral
Experimental: as §1, §2, §3
Cholesterol Analysis. Blood samples were allowed to clot at room temperature for 2 hours, and serum was obtained following centrifugation for 10 minutes at 3000 rpm. Serum cholesterol was determined using a Boehringer Mannheim Diagnostics high performance cholesterol assay. Briefly the cholesterol was oxidized to cholest-4-en-3-one and hydrogen peroxide. The hydrogen peroxide was then reacted with phenol and 4-aminophenazone in the presence of peroxidase to produce a p-quinone imine dye, which was read spectrophotemetrically at 500 nm. Cholesterol concentration was then calculated against a standard curve. The entire assay was automated using a Biomek Automated Workstation.

[5] = Rattus norvegicus, po, 96 h, 0.1 mg/kg, read-out: Uterine Weight (% increase vs. OVX)
[6] = Rattus norvegicus, po, 96 h, 10.0 mg/kg, OVX rats, read-out: Serum Cholesterol (% decrease vs. OVX)
[7] = Rattus norvegicus, po, 96 h, 1.0 mg/kg, read-out: Uterine Weight (% increase vs. OVX)
[8] = Rattus norvegicus, po, 96 h, 10.0 mg/kg, read-out: Uterine Weight (% increase vs. OVX)
[9] = Rattus norvegicus, po, 96 h, 0.1 mg/kg, OVX rats, read-out: Serum Cholesterol (% decrease vs. OVX)
[10] = Rattus norvegicus, po, 96 h, 1.0 mg/kg, OVX rats, read-out: Serum Cholesterol (% decrease vs. OVX)

Row | SMILES | IC50, MCF-7 proliferation [1] | IC50 [1] | Uterine EPO (V. max) ([2]; 0.1 mg/kg) | Uterine EPO (V. max) ([2]; 1.0 mg/kg) | Uterine EPO (V. max) ([2]; 10.0 mg/kg) | change in vivo at 0.1 mg/kg [3, 5] | inhibition in vivo at 10 mg/kg [4, 6] | change in vivo at 1 mg/kg [3, 7] | change in vivo at 10 mg/kg [3, 8] | inhibition in vivo at 0.1 mg/kg [4, 9] | inhibition in vivo at 1 mg/kg [4, 10] | also measured
1 | COc1ccc2c(C(=O)c3ccc(OCCN4CCCCC4)cc3)c(-c3cccs3)sc2c1 [Example 5, [2-(2-Thienyl)-6-methoxybenzothien-3-yl][4-[2-(1-piperdinyl)ethoxy]phenyl]methanone] | Not active at the concentration tested |  | 3.0 | 3.3 | 4.2 | 2.4% | 26.3% |  |  |  |  | Uterine Weight (% increase vs. OVX) ([3]; 1.0 mg/kg): 1.4%; Uterine Weight (% increase vs. OVX) ([3]; 10.0 mg/kg): 28.6%; Serum Cholesterol (% decrease vs. OVX) ([4]; 0.1 mg/kg): 6%; Serum Cholesterol (% decrease vs. OVX) ([4]; 1.0 mg/kg): -10.2%
2 | O=C(c1ccc(OCCN2CCCCC2)cc1)c1c(-c2ccc3ccccc3c2)sc2cc(O)ccc12 [Example 4, [2-(2-Naphthyl)-6-hydroxybenzothien-3-yl][4-[2-(1-piperdinyl)ethoxy]phenyl]methanone] |  | 80 nM | 12.3 | 42.9 | 35.7 | 72.7% | 63.6% | 46.8% | 59.5% | 48.1% | 54.5% | 
3 | O=C(c1ccc(OCCN2CCCCC2)cc1)c1c(-c2cccs2)sc2cc(O)ccc12 [Example 7, [2-(2-Thienyl)-6-hydroxybenzothien-3-yl][4-[2-(1-piperdinyl)ethoxy]phenyl]methanone] |  | 20 nM | 1.8 | 4.5 | 8.4 | -1.7% | 51.4% | 32.4% | 46.9% | -18.6% | -0.9% | 
4 | COc1ccc2c(C(=O)c3ccc(OCCN4CCCCC4)cc3)c(-c3cccs3)sc2c1 [Example 6, [2-(2-Thienyl)-6-methoxybenzothien-3-yl][4-[2-(1-piperdinyl)ethoxy]phenyl]methanone hydrochloride] |  |  |  |  |  |  |  |  |  |  |  | Uterine EPO (V. max) ([2]; 0.1 mg/kg, hydrochloride): 3.3; Uterine EPO (V. max) ([2]; 1.0 mg/kg, hydrochloride): 4.8; Uterine EPO (V. max) ([2]; 10.0 mg/kg, hydrochloride): 4.8; Uterine Weight (% increase vs. OVX) ([3]; 0.1 mg/kg, hydrochloride): 3.4%; Uterine Weight (% increase vs. OVX) ([3]; 1.0 mg/kg, hydrochloride): 4.2%; Uterine Weight (% increase vs. OVX) ([3]; 10.0 mg/kg, hydrochloride): 9.5%; Serum Cholesterol (% decrease vs. OVX) ([4]; 0.1 mg/kg, hydrochloride): 23.1%; Serum Cholesterol (% decrease vs. OVX) ([4]; 1.0 mg/kg, hydrochloride): 35.8%; Serum Cholesterol (% decrease vs. OVX) ([4]; 10.0 mg/kg, hydrochloride): 29.6%
5 | O=C(c1ccc(OCCN2CCCCC2)cc1)c1c(-c2cccc3ccccc23)sc2cc(O)ccc12 [Example 2, [2-(1-Naphthyl)-6-hydroxybenzothien-3-yl][4-[2-(1-piperdinyl)ethoxy]phenyl]methanone] |  | 0.8 nM | 4.5 | 4.8 | 3.6 | 28.8% | 70.6% | 28.1% | 21.2% | 56% | 60.6% | 

Second part, led by results:

Row | IC50, MCF-7 proliferation [1] | IC50 [1] | SMILES | Uterine EPO (V. max) ([2]; 0.1 mg/kg) | Uterine EPO (V. max) ([2]; 1.0 mg/kg) | Uterine EPO (V. max) ([2]; 10.0 mg/kg) | change in vivo at 0.1 mg/kg [3, 5] | inhibition in vivo at 10 mg/kg [4, 6] | change in vivo at 1 mg/kg [3, 7] | change in vivo at 10 mg/kg [3, 8] | inhibition in vivo at 0.1 mg/kg [4, 9] | inhibition in vivo at 1 mg/kg [4, 10] | also measured
6 | Not active at the concentration tested |  | COc1ccc(Cc2sc3cc(OC)ccc3c2C(=O)c2ccc(OCCN3CCCCC3)cc2)cc1 [Example 10, [2-(4-Methoxyphenyl)methyl-6-methoxybenzothien-3-yl][4-[2-(1-piperdinyl)ethoxy]phenyl]methanone] | 6.6 | 46.2 | 65.4 | -5.6% | 50% | 39.2% | 45.2% | 10.3% | 49% | 
7 | Not active at the concentration tested |  | COc1ccc2c(C(=O)c3ccc(OCCN4CCCCC4)cc3)c(-c3ccsc3)sc2c1 [Example 8] | 3.0 | 0.9 | 4.2 | 6.6% | 35% | 10.3% | 21.3% | -23.4% | -3.5% | 
8 |  | 5 nM | O=C(c1ccc(OCCN2CCCCC2)cc1)c1c(Cc2ccc(O)cc2)sc2cc(O)ccc12 [Example 11, [2-(4-Hydroxyphenyl)methyl-6-hydroxybenzothien-3-yl][4-[2-(1-piperdinyl)ethoxy]phenyl]methanone] | 16.5 | 18.9 | 40.5 | 80.5% | 68.3% | 44.6% | 46.9% | 43% | 35.3% | Uterine EPO (V. max) ([2]; 0.01 mg/kg): 33.0; change in vivo at 0.01 mg/kg ([3]; Rattus norvegicus, po, 96 h, 0.01 mg/kg, read-out: Uterine Weight (% increase vs. OVX)): 77.9%; inhibition in vivo at 0.01 mg/kg ([4]; Rattus norvegicus, po, 96 h, 0.01 mg/kg, OVX rats, read-out: Serum Cholesterol (% decrease vs. OVX)): 41%
9 |  | 10 nM | O=C(c1ccc(OCCN2CCCCC2)cc1)c1c(-c2ccsc2)sc2cc(O)ccc12 [Example 9] | 0.9 | 3.3 | 2.4 | 8.8% | 31.9% | 1.2% | 54.3% | 0.6% | 29.8% | 
